The values that follow come from patent US7872027B2, “Low molecular weight Myc-max inhibitors” (University of Pittsburgh - Of the Commonwealth System of …, priority 2006, dated 2011).

In assay [1] the test system is HL60 human promyelocytic leukemia cells. As to the kind of experiment: HL60 cell growth inhibition (trypan blue cell counts). It counts as cell-based. The procedure:
Note that all structures shown herein are drawn in their Z-isoform and some bonds have been standardized. IC50's here, as well as below for in FIGS. 2 and 3, were calculated based upon dose-response profiles on day 5 following the addition of each compound.
HL60 human promyelocytic leukemia cells were grown in RPMI medium supplemented with 10% fetal calf serum, 100 U/ml penicillin G, and 100 μg/ml streptomycin (all from Mediatech, Inc., Herndon, Va.). Rat fibroblast lines were grown under similar conditions in Dulbecco's modified minimal essential medium. To determine the effects of Myc-Max compounds on HL60 cell growth, logarithmically growing cells (>90% viability) were resuspended in fresh medium. Four (4) ml (a total of 16,000 cells) were then seeded into 6-well plates in the presence of the indicated amount of Myc-Max compound. In all cases, 10058-F4 was included as a reference compound. Daily cell counts were performed manually in triplicate on a hemacytometer using trypan blue exclusion. Viabilities exceeded 85% throughout the course of the experiment.
Each compound was initially tested for its ability to inhibit the growth of the HL60 human promyelocytic leukemia cell line, which expresses high levels of c-Myc as a result of gene amplification (Park S—H, et al. Methods Mol Biol 2004; 261:161-165 (2004)). […]

In the next assay the target is T1, c-Myc-Max complexes (Homo sapiens, UniProt P01106).
T1 construct: endogenous in cells; host or cells: HL60 nuclear extract
As to the kind of experiment: co-immunoprecipitation of c-Myc and Max from HL60 nuclear extracts. It counts as biochemical. The conditions noted are these: 30° C. for 30 min. The procedure: (§1) Equivalent amounts of nuclear extracts were incubated with the indicated concentrations of the compounds depicted in FIGS. 1-3. Following precipitation of the complexes with an anti-Max antibody, the total amount of associated c-Myc was detected by immunoblotting (top panel). As a control, the lower portion of the blot was probed with an anti-Max antibody (bottom panel). FIGS. 4B, 4C and 4D show EMSAs results. Recombinant c-Myc353-439 (which encodes the complete bHLH-ZIP dimerization domain) and full-length Max(S) were purified to homogeneity from E. coli and used at a final concentration of 60 nM in the presence of the indicated concentration of compound.
Nuclei from HL60 cells were prepared essentially as described previously (17). Briefly, approximately 4×10^7 washed nuclei were resuspended in 1 ml of ice cold buffer F, which contained 150 mM NaCl; 10 mM Tris-HCl, pH 7.1; 30 mM sodium pyrophosphate; 5 μM ZnCl2; 0.1% Nonidet P-40; 0.1 mM Na3VO4; 1 mM PMSF; 2.5 U/ml each of pepstatin, leupeptin, and approtinin. All reagents were from Sigma-Aldrich (St. Louis, Mo.). […]
10058-F4 analogs interfere directly with c-Myc-Max heterodimerization and DNA binding. […] To address this, the effect of each compound on c-Myc-Max association was determined in vitro by two different methods. […] The total amount of co-precipitating c-Myc protein was then assessed by immunoblotting. […]

The next assay deals with T2, c-Myc-Max(S) heterodimer (Homo sapiens, UniProt P01106).
T2 construct: human Myc residues 353-439 with a GGCD extension at the C terminus; His6 (TEV-cleavable) (cleaved yes); made in house; host or cells: E. coli BL21DE3(plysS) for c-Myc; E. coli M15(pRep4) for Max
Put plainly: electrophoretic mobility shift assay (EMSA), E-box DNA binding. The format is biochemical. The conditions noted are these: 60 nM each protein, 10 nM oligonucleotide. The procedure: as §1
Electrophoretic mobility shift Assays (EMSAs). Experiments were performed on 8% polyacrylamide:bis-acrylamide (80:1) gels in 0.5×TBE. […]
and was synthesized by Integrated DNA Technologies Inc (Coralville, Iowa). […] Data were analyzed with BioRad Quantity One software.
The second method used to gauge the effects of 10058-F4 and its analogs on c-Myc-Max complexes relied on the use of a simple, three component electrophoretic mobility shift assay (EMSA). […] The ability of the resultant heterodimer to bind a double-stranded target oligonucleotide containing a consensus E-box motif was then assessed by PAGE. […]

T2 sequence (P01106 368-454, one chain of several): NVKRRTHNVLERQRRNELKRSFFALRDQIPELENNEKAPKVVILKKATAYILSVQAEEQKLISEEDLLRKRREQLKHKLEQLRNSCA
T1 sequence (P01106 whole entry, one chain of several): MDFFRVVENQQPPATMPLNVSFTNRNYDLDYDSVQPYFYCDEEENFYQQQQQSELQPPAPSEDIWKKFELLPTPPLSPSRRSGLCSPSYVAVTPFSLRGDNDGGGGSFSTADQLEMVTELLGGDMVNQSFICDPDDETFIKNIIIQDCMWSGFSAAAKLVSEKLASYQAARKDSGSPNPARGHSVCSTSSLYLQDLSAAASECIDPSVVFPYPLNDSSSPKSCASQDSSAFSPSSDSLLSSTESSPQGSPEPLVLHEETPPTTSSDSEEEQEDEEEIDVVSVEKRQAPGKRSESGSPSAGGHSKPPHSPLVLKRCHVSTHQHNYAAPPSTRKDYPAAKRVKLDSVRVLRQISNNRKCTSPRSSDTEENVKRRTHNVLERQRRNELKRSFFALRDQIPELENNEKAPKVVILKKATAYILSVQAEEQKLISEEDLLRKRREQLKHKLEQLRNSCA

As to `CCc1ccc(C=C2SC(=S)NC2=O)cc1` [Compound 10058-F4, (Z,E)-5-(4-ethylbenzylidene)-2-thioxothiazolidin-4-one], in assay [1] (Homo sapiens, HL-60, 120 h, dose-response profiles on day 5 following addition of compound, read-out: ID50, HL60 cell growth), the IC50 turned out to be 51 µM. In addition, the “dissociation of c-Myc from Max (co-IP with anti-Max antibody)” value on c-Myc-Max complexes was “promoted the dissociation of c-Myc from Max”. For the same molecule, the “inhibition of E-box DNA binding by c-Myc-Max(S)” value on c-Myc-Max(S) heterodimer is “dose-dependent, although variable, inhibition”.

As for `CC(C)c1ccc(/C=C2\SC(=S)N(CN3CCCCC3)C2=O)cc1` [Compound 28RH-NCN-1], in assay [1] (10058-F4 in parallel), the “activity in HL60 cells compared with 10058-F4” value is on record as “activities comparable to that of 10058-F4”.
